Measured values taken from patent US11419852B2, “Beta-lactam compounds or salts thereof for use in long-acting prevention or treatment of a glucose metabolism disorder” (GLYCOLYSIS BIOMED CO., LTD., priority 2019, dated 2022).
Marks after values point to notes of the source that are not given here.

Tests used:
db/db mice = test: Plasma biochemical parameters (AST, ALT, BUN, Cr, HbA1c); type: in vivo
Protocol: Inflammatory markers such as serum aspartate aminotransferase (AST), alanine aminotransferase (ALT), blood urea nitrogen (BUN), creatinine (Cr), and hemoglobin Alc (HbAlc) were measured using a BMC-Hitachi 717 chemistry auto analyzer.

[1] = Body weight of mice recorded weekly; type: in vivo
Protocol: Four to five weeks old db/db mice (BKS.Cg-Dock7^m+/+Lepr^db/JNarl) and m/m mice (BKS.Cg-Dock7^m+/Dock7^m+) were obtained from National Laboratory Animal Center ([…], Taiwan). […] PMI Nutrition International, Brentwood, Mo.) and water ad libitum. […] The mouse body weight (bw) and the amounts of water and food intake were recorded weekly for the entire study period.

[2] = Ex 1: db/db mice, ertapenem i.p. 0.41 mg/g bw/day, week 3
[3] = Ex 3, after the treatments had been stopped for 6 weeks
[4] = Ex 3: db/db mice, daily dosing 3 weeks at doses of Table 10, week 9

With `C[C@@H](O)[C@H]1C(=O)N2C(C(=O)O)=C(S[C@@H]3CN[C@H](C(=O)Nc4cccc(C(=O)O)c4)C3)[C@H](C)[C@H]12` [DMH, ertapenem] the “Levels of AST, ALT, BUN, and HbA1c in the diabetes mice” value (db/db mice; Ex 1, week 3) was “significantly reduced”, the ALT (db/db mice; [2]) was 34 ± 6 U/L and the AST (db/db mice; [2]) was 61 ± 7 U/L. For the same compound, the BUN (db/db mice; [2]) was 27 ± 2 mg/dL, the Creatinine (db/db mice; [2]) was 0.57 ± 0.02 mg/dL and the HbA1c (db/db mice; [2]) was 6.1 ± 0.8 %. The “Level of ALT” value (db/db mice; [3]) was “reduce”, the “Level of AST” value (db/db mice; [3]) was “reduce” and the “Level of HbA1c” value (db/db mice; [3]) was “reduce”. For the same compound, the ALT (db/db mice; [4]) was 79 ± 8^bc U/L, the AST (db/db mice; [4]) was 127 ± 13^ad U/L and the BUN (db/db mice; [4]) was 44 + 2^d mg/dL. The Creatinine (db/db mice; [4]) was 0.467 ± 0.01^bd mg/dL, the HbA1c (db/db mice; [4]) was 5.8 ± 0.3^d % and the “Effect on body weight in db/db mice” value ([1]; Ex 2, 0.1 mg/g bw and 0.4 mg/g bw) was “positive effects of body weight lowering”. The Body weight ([1]; Ex 2 G3 db/db, 0.3 mg/g bw/day (row printed 0.3 DMH), dosing 6 weeks, week 14) was 43.94 ± 1.54^b, the Body weight ([1]; Ex 2 G3 db/db, 0.3 mg/g bw/day (row printed 0.3 DMH), dosing 6 weeks, week 15) was 46.46 ± 1.39^b and the Body weight ([1]; Ex 2 G3 db/db, 0.3 mg/g bw/day (row printed 0.3 DMH), dosing 6 weeks, week 16) was 47.68 ± 1.32^b. For the same compound, the Body weight ([1]; Ex 2 G3 db/db, 0.3 mg/g bw/day (row printed 0.3 DMH), dosing 6 weeks, week 17) was 48.31 ± 1.38^b, the Body weight ([1]; Ex 2 G3 db/db, 0.3 mg/g bw/day (row printed 0.3 DMH), dosing 6 weeks, week 18) was 49.57 ± 1.47^b and the Body weight ([1]; Ex 2 G3 db/db, 0.3 mg/g bw/day (row printed 0.3 DMH), dosing 6 weeks, week 19) was 51.98 ± 1.66^b. For the same compound, the Body weight ([1]; Ex 2 G4 db/db, DMH i.p. 0.1 mg/g bw/day, dosing 6 weeks, Baseline) was 29.44 ± 2.09^b, the Body weight ([1]; Ex 2 G4 db/db, DMH i.p. 0.1 mg/g bw/day, dosing 6 weeks, week 1) was 29.21 ± 2.01^b and the Body weight ([1]; Ex 2 G4 db/db, DMH i.p. 0.1 mg/g bw/day, dosing 6 weeks, week 2) was 29.95 ± 1.79^b. The Body weight ([1]; Ex 2 G4 db/db, DMH i.p. 0.1 mg/g bw/day, dosing 6 weeks, week 3) was 32.38 ± 1.38^b, the Body weight ([1]; Ex 2 G4 db/db, DMH i.p. 0.1 mg/g bw/day, dosing 6 weeks, week 4) was 33.49 ± 1.13^b and the Body weight ([1]; Ex 2 G4 db/db, DMH i.p. 0.1 mg/g bw/day, dosing 6 weeks, week 5) was 35.72 ± 1.01^b. The Body weight ([1]; Ex 2 G4 db/db, DMH i.p. 0.1 mg/g bw/day, dosing 6 weeks, week 6) was 36.73 ± 0.95^b, the Body weight ([1]; Ex 2 G4 db/db, DMH i.p. 0.1 mg/g bw/day, dosing 6 weeks, week 7) was 36.68 ± 0.83^b and the Body weight ([1]; Ex 2 G4 db/db, DMH i.p. 0.1 mg/g bw/day, dosing 6 weeks, week 8) was 37.83 ± 0.77^b. The Body weight ([1]; Ex 2 G4 db/db, DMH i.p. 0.1 mg/g bw/day, dosing 6 weeks, week 9) was 38.46 ± 0.8^b, the Body weight ([1]; Ex 2 G4 db/db, DMH i.p. 0.1 mg/g bw/day, dosing 6 weeks, week 10) was 39.43 ± 0.81^b and the Body weight ([1]; Ex 2 G4 db/db, DMH i.p. 0.1 mg/g bw/day, dosing 6 weeks, week 11) was 40.86 ± 0.82^b. For the same compound, the Body weight ([1]; Ex 2 G4 db/db, DMH i.p. 0.1 mg/g bw/day, dosing 6 weeks, week 12) was 42.59 ± 0.87^b, the Body weight ([1]; Ex 2 G4 db/db, DMH i.p. 0.1 mg/g bw/day, dosing 6 weeks, week 13) was 44.21 ± 0.99^b and the Body weight ([1]; Ex 2 G4 db/db, DMH i.p. 0.1 mg/g bw/day, dosing 6 weeks, week 14) was 43.56 ± 1.08^b. The Body weight ([1]; Ex 2 G4 db/db, DMH i.p. 0.1 mg/g bw/day, dosing 6 weeks, week 15) was 45.90 ± 1.18^b, the Body weight ([1]; Ex 2 G4 db/db, DMH i.p. 0.1 mg/g bw/day, dosing 6 weeks, week 16) was 46.80 ± 1.29^b and the Body weight ([1]; Ex 2 G4 db/db, DMH i.p. 0.1 mg/g bw/day, dosing 6 weeks, week 17) was 47.21 ± 1.26^b. The Body weight ([1]; Ex 2 G4 db/db, DMH i.p. 0.1 mg/g bw/day, dosing 6 weeks, week 18) was 48.14 ± 1.23^b, the Body weight ([1]; Ex 2 G4 db/db, DMH i.p. 0.1 mg/g bw/day, dosing 6 weeks, week 19) was 50.91 ± 1.22^b and the Body weight ([1]; Ex 2 G5 db/db, DMH i.p. 0.2 mg/g bw/day, dosing 6 weeks, Baseline) was 31.70 ± 1.46^b. For the same compound, the Body weight ([1]; Ex 2 G5 db/db, DMH i.p. 0.2 mg/g bw/day, dosing 6 weeks, week 1) was 31.31 ± 1.48^b, the Body weight ([1]; Ex 2 G5 db/db, DMH i.p. 0.2 mg/g bw/day, dosing 6 weeks, week 2) was 31.81 ± 1.12^bc and the Body weight ([1]; Ex 2 G5 db/db, DMH i.p. 0.2 mg/g bw/day, dosing 6 weeks, week 3) was 34.36 ± 0.75^bc. For the same compound, the Body weight ([1]; Ex 2 G5 db/db, DMH i.p. 0.2 mg/g bw/day, dosing 6 weeks, week 4) was 35.55 ± 0.61^bc, the Body weight ([1]; Ex 2 G5 db/db, DMH i.p. 0.2 mg/g bw/day, dosing 6 weeks, week 5) was 37.76 ± 0.49^bc and the Body weight ([1]; Ex 2 G5 db/db, DMH i.p. 0.2 mg/g bw/day, dosing 6 weeks, week 6) was 39.06 ± 0.54^bc. For the same compound, the Body weight ([1]; Ex 2 G5 db/db, DMH i.p. 0.2 mg/g bw/day, dosing 6 weeks, week 7) was 39.07 ± 0.45^bc, the Body weight ([1]; Ex 2 G5 db/db, DMH i.p. 0.2 mg/g bw/day, dosing 6 weeks, week 8) was 39.99 ± 0.39^bc and the Body weight ([1]; Ex 2 G5 db/db, DMH i.p. 0.2 mg/g bw/day, dosing 6 weeks, week 9) was 40.63 ± 0.27^bcd. For the same compound, the Body weight ([1]; Ex 2 G5 db/db, DMH i.p. 0.2 mg/g bw/day, dosing 6 weeks, week 10) was 41.39 ± 0.29^b, the Body weight ([1]; Ex 2 G5 db/db, DMH i.p. 0.2 mg/g bw/day, dosing 6 weeks, week 11) was 42.98 ± 0.35^b and the Body weight ([1]; Ex 2 G5 db/db, DMH i.p. 0.2 mg/g bw/day, dosing 6 weeks, week 12) was 44.66 ± 0.38^b. The Body weight ([1]; Ex 2 G5 db/db, DMH i.p. 0.2 mg/g bw/day, dosing 6 weeks, week 13) was 46.52 ± 0.45^b, the Body weight ([1]; Ex 2 G5 db/db, DMH i.p. 0.2 mg/g bw/day, dosing 6 weeks, week 14) was 46.10 ± 0.51^b and the Body weight ([1]; Ex 2 G5 db/db, DMH i.p. 0.2 mg/g bw/day, dosing 6 weeks, week 15) was 48.58 ± 0.55^b. For the same compound, the Body weight ([1]; Ex 2 G5 db/db, DMH i.p. 0.2 mg/g bw/day, dosing 6 weeks, week 16) was 49.65 ± 0.63^b, the Body weight ([1]; Ex 2 G5 db/db, DMH i.p. 0.2 mg/g bw/day, dosing 6 weeks, week 17) was 49.96 ± 0.68^b and the Body weight ([1]; Ex 2 G5 db/db, DMH i.p. 0.2 mg/g bw/day, dosing 6 weeks, week 18) was 50.71 ± 0.87^b. For the same compound, the Body weight ([1]; Ex 2 G5 db/db, DMH i.p. 0.2 mg/g bw/day, dosing 6 weeks, week 19) was 52.73 ± 1.04^b, the Body weight ([1]; Ex 2 G6 db/db, DMH i.p. 0.4 mg/g bw/day, dosing 6 weeks, Baseline) was 31.61 ± 1.03^b and the Body weight ([1]; Ex 2 G6 db/db, DMH i.p. 0.4 mg/g bw/day, dosing 6 weeks, week 1) was 31.23 ± 0.98^b. For the same compound, the Body weight ([1]; Ex 2 G6 db/db, DMH i.p. 0.4 mg/g bw/day, dosing 6 weeks, week 2) was 31.62 ± 0.77^bc, the Body weight ([1]; Ex 2 G6 db/db, DMH i.p. 0.4 mg/g bw/day, dosing 6 weeks, week 3) was 33.98 ± 0.54^b and the Body weight ([1]; Ex 2 G6 db/db, DMH i.p. 0.4 mg/g bw/day, dosing 6 weeks, week 4) was 34.29 ± 0.59^b. The Body weight ([1]; Ex 2 G6 db/db, DMH i.p. 0.4 mg/g bw/day, dosing 6 weeks, week 5) was 36.44 ± 0.71^b, the Body weight ([1]; Ex 2 G6 db/db, DMH i.p. 0.4 mg/g bw/day, dosing 6 weeks, week 6) was 37.16 ± 0.8^b and the Body weight ([1]; Ex 2 G6 db/db, DMH i.p. 0.4 mg/g bw/day, dosing 6 weeks, week 7) was 37.16 ± 0.93^b. The Body weight ([1]; Ex 2 G6 db/db, DMH i.p. 0.4 mg/g bw/day, dosing 6 weeks, week 8) was 38.67 ± 1.24^b, the Body weight ([1]; Ex 2 G6 db/db, DMH i.p. 0.4 mg/g bw/day, dosing 6 weeks, week 9) was 39.72 ± 1.36^bc and the Body weight ([1]; Ex 2 G6 db/db, DMH i.p. 0.4 mg/g bw/day, dosing 6 weeks, week 10) was 40.81 ± 1.34^b. For the same compound, the Body weight ([1]; Ex 2 G6 db/db, DMH i.p. 0.4 mg/g bw/day, dosing 6 weeks, week 11) was 42.61 ± 1.31^b, the Body weight ([1]; Ex 2 G6 db/db, DMH i.p. 0.4 mg/g bw/day, dosing 6 weeks, week 12) was 44.54 ± 1.63^b and the Body weight ([1]; Ex 2 G6 db/db, DMH i.p. 0.4 mg/g bw/day, dosing 6 weeks, week 13) was 45.69 ± 1.86^b. For the same compound, the Body weight ([1]; Ex 2 G6 db/db, DMH i.p. 0.4 mg/g bw/day, dosing 6 weeks, week 14) was 45.08 ± 1.89^b, the Body weight ([1]; Ex 2 G6 db/db, DMH i.p. 0.4 mg/g bw/day, dosing 6 weeks, week 15) was 47.29 ± 1.95^b and the Body weight ([1]; Ex 2 G6 db/db, DMH i.p. 0.4 mg/g bw/day, dosing 6 weeks, week 16) was 48.79 ± 1.95^b. For the same compound, the Body weight ([1]; Ex 2 G6 db/db, DMH i.p. 0.4 mg/g bw/day, dosing 6 weeks, week 17) was 48.99 ± 1.87^b, the Body weight ([1]; Ex 2 G6 db/db, DMH i.p. 0.4 mg/g bw/day, dosing 6 weeks, week 18) was 50.70 ± 1.87^b and the Body weight ([1]; Ex 2 G6 db/db, DMH i.p. 0.4 mg/g bw/day, dosing 6 weeks, week 19) was 53.56 ± 1.99^b. For the same compound, the Body weight ([1]; Ex 3: db/db mice, daily dosing 3 weeks at doses of Table 10, Baseline) was 29.3 ± 1^b, the Body weight ([1]; Ex 3: db/db mice, daily dosing 3 weeks at doses of Table 10, Final) was 38.3 ± 1^c and the Body weight ([1]; Ex 3: db/db mice, daily dosing 3 weeks at doses of Table 10, Week 3) was 33.5 ± 1^cd. The Body weight ([1]; Ex 3: db/db mice, daily dosing 3 weeks at doses of Table 10, Week 6 (stopped for 3 weeks)) was 35.1 ± 1^b and the Body weight ([1]; Ex 3: db/db mice, daily dosing 3 weeks at doses of Table 10, Week 9 (stopped for 6 weeks)) was 40.0 ± 1^c.
